Experimental data as given in US10160747B2, “Compounds and methods for kinase modulation, and indications therefor” (Plexxikon Inc., priority 2016, dated 2018).

How the values were obtained:
BA/F3-FLT3-ITD + D835Y = target: T1, BA/F3-FLT3-ITD + D835Y (Homo sapiens, UniProt P36888, D835Y, cells depend on it, form not given); experiment: Engineered BA/F3 cell growth assay, FLT3 ITD/D835Y; type: cell-based, murine; details: 3 d growth
T1 sequence (P36888 with tags, fused parts or gaps INS600HVDFREYEYD/D835Y): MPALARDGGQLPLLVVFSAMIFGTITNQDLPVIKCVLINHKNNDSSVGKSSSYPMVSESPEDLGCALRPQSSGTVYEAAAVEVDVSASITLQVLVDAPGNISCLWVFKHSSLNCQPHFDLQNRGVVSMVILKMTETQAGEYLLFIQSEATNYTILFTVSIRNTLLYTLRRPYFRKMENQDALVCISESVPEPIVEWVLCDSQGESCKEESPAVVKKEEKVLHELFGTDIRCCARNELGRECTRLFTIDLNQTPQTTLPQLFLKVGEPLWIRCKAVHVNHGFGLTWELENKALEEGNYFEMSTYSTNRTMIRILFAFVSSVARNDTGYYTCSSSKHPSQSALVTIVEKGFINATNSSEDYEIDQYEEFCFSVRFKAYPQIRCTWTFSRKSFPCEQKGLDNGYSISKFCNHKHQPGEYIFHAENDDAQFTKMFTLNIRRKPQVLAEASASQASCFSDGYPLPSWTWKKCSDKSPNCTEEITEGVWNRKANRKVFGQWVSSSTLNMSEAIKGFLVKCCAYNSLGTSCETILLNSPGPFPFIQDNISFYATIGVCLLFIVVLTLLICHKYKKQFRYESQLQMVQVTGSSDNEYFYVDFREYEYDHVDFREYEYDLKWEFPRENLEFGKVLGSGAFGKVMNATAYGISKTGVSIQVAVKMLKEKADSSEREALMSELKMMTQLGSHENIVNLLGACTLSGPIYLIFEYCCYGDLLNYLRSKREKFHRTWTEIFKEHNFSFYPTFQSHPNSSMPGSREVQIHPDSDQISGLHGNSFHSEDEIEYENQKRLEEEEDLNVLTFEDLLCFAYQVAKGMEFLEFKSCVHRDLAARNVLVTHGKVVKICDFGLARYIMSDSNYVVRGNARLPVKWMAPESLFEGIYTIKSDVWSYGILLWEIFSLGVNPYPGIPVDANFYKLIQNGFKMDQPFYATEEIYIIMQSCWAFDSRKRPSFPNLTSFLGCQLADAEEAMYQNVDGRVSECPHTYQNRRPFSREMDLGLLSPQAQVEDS
How it was run: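 Murine Ba/F3 cells transfected with full-length FLT3 ITD/D835Y, grown without IL-3 so growth depends on FLT3. Seeded at 1×10^4 cells/well, 8-point 1:3 series to 1 μM top (0.2% DMSO), 3 days at 37 °C. CellTiter-Glo luminescence (ATP) versus concentration gave IC50.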

[1] = test system: MOLM-14 D835Y (endogenous FLT3 ITD and transfected FLT3 D835Y); experiment: MOLM-14 D835Y cell proliferation assay (CellTiter-Glo); type: cell-based; details: Homo sapiens, MOLM-14, 72 h; 3 d growth, GMean
How it was run: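 Three-day proliferation at 37 °C/5% CO2 of FLT3-ITD MOLM-14 lines with D835Y or F691L mutation, seeded 1×10^4 per well. Compounds at eight points, top 1 μM final, 0.2% DMSO. ATP luminescence (CellTiter-Glo) gives IC50.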

GI50 (BA/F3-FLT3-ITD + D835Y)	IC50 [1]	SMILES
0.0001 to 10 µM	0.0001 to 10 µM	O=C(Cc1ccc(-c2cnc(Nc3cnn(C4CC4)c3)nc2)cc1F)Nc1ccc(C(F)(F)F)cn1 [Compound P-0243, 2-[4-[2-[(1-cyclopropylpyrazol-4-yl)amino]pyrimidin-5-yl]-2-fluoro-phenyl]-N-[5-(trifluoromethyl)-2-pyridyl]acetamide]
0.0001 to 10 µM	0.0001 to 10 µM	O=C(Cc1ccc(-c2cnc(Nc3cnn(C4CC4)c3)nc2)cc1F)Nc1cc(C(F)(F)F)ccn1 [Compound P-0244, 2-[4-[2-[(1-cyclopropylpyrazol-4-yl)amino]pyrimidin-5-yl]-2-fluoro-phenyl]-N-[4-(trifluoromethyl)-2-pyridyl]acetamide]
0.0001 to 10 µM	0.0001 to 10 µM	CCn1cc(Nc2ncc(-c3ccc(CC(=O)Nc4cnc(OC)c(C(F)(F)F)c4)cc3F)cn2)cn1 [Compound P-0246, 2-[4-[2-[(1-ethylpyrazol-4-yl)amino]pyrimidin-5-yl]-3-fluoro-phenyl]-N-[6-methoxy-5-(trifluoromethyl)-3-pyridyl]acetamide]
0.0001 to 10 µM	0.0001 to 10 µM	CCn1cc(Nc2ncc(-c3cc(F)c(CC(=O)Nc4cnc(OC)c(C(F)(F)F)c4)cc3F)cn2)cn1 [Compound P-0247, 2-[4-[2-[(1-ethylpyrazol-4-yl)amino]pyrimidin-5-yl]-2,5-difluoro-phenyl]-N-[6-methoxy-5-(trifluoromethyl)-3-pyridyl]acetamide]
0.0001 to 10 µM	0.0001 to 10 µM	CCn1cc(Nc2ncc(-c3ccc(CC(=O)Nc4cnc(C)c(C(F)(F)F)c4)cc3F)cn2)cn1 [Compound P-0248, 2-[4-[2-[(1-ethylpyrazol-4-yl)amino]pyrimidin-5-yl]-3-fluoro-phenyl]-N-[6-methyl-5-(trifluoromethyl)-3-pyridyl]acetamide]
0.0001 to 10 µM	0.0001 to 10 µM	CCn1cc(Nc2ncc(-c3cc(F)c(CC(=O)Nc4cnc(C)c(C(F)(F)F)c4)cc3F)cn2)cn1 [Compound P-0249, 2-[4-[2-[(1-ethylpyrazol-4-yl)amino]pyrimidin-5-yl]-2,5-difluoro-phenyl]-N-[6-methyl-5-(trifluoromethyl)-3-pyridyl]acetamide]
0.0001 to 10 µM	0.0001 to 10 µM	CCn1cc(Nc2ncc(-c3ccc(CC(=O)Nc4cc(C(F)(F)F)ccn4)cc3)cn2)cn1 [Compound P-0250, 2-[4-[2-[(1-ethylpyrazol-4-yl)amino]pyrimidin-5-yl]phenyl]-N-[4-(trifluoromethyl)-2-pyridyl]acetamide]
0.0001 to 10 µM	0.0001 to 10 µM	CCn1cc(Nc2ncc(-c3ccc(CC(=O)Nc4ccc(C(F)(F)F)cn4)cc3)cn2)cn1 [Compound P-0251, 2-[4-[2-[(1-ethylpyrazol-4-yl)amino]pyrimidin-5-yl]phenyl]-N-[5-(trifluoromethyl)-2-pyridyl]acetamide]
0.0001 to 10 µM	0.0001 to 10 µM	CCn1cc(Nc2ncc(-c3ccc(CC(=O)Nc4ccc(C(F)(F)F)nc4)cc3)cn2)cn1 [Compound P-0252, 2-[4-[2-[(1-ethylpyrazol-4-yl)amino]pyrimidin-5-yl]phenyl]-N-[6-(trifluoromethyl)-3-pyridyl]acetamide]
0.0001 to 10 µM	0.0001 to 10 µM	CCn1cc(Nc2ncc(-c3ccc(CC(=O)Nc4cnc(OC)c(C(F)(F)F)c4)cc3)cn2)cn1 [Compound P-0253, 2-[4-[2-[(1-ethylpyrazol-4-yl)amino]pyrimidin-5-yl]phenyl]-N-[6-methoxy-5-(trifluoromethyl)-3-pyridyl]acetamide]
0.0001 to 10 µM	0.0001 to 10 µM	CCn1cc(Nc2ncc(-c3ccc(CC(=O)Nc4cnc(C)c(C(F)(F)F)c4)cc3)cn2)cn1 [Compound P-0254, 2-[4-[2-[(1-ethylpyrazol-4-yl)amino]pyrimidin-5-yl]phenyl]-N-[6-methyl-5-(trifluoromethyl)-3-pyridyl]acetamide]
0.0001 to 10 µM	0.0001 to 10 µM	CCn1cc(Nc2ncc(-c3ccc(CC(=O)Nc4cc(C(F)(F)F)ccn4)c(F)c3)cn2)cn1 [Compound P-0255, 2-[4-[2-[(1-ethylpyrazol-4-yl)amino]pyrimidin-5-yl]-2-fluoro-phenyl]-N-[4-(trifluoromethyl)-2-pyridyl]acetamide]
0.0001 to 10 µM	0.0001 to 10 µM	CCn1cc(Nc2ncc(-c3ccc(CC(=O)Nc4ccc(C(F)(F)F)cn4)c(F)c3)cn2)cn1 [Compound P-0256, 2-[4-[2-[(1-ethylpyrazol-4-yl)amino]pyrimidin-5-yl]-2-fluoro-phenyl]-N-[5-(trifluoromethyl)-2-pyridyl]acetamide]
0.0001 to 10 µM	0.0001 to 10 µM	CCn1cc(Nc2ncc(-c3ccc(CC(=O)Nc4ccc(C(F)(F)F)nc4)c(F)c3)cn2)cn1 [Compound P-0257, 2-[4-[2-[(1-ethylpyrazol-4-yl)amino]pyrimidin-5-yl]-2-fluoro-phenyl]-N-[6-(trifluoromethyl)-3-pyridyl]acetamide]
0.0001 to 10 µM	0.0001 to 10 µM	CCn1cc(Nc2ncc(-c3ccc(CC(=O)Nc4cncc(C(F)(F)F)c4)c(F)c3)cn2)cn1 [Compound P-0258, 2-[4-[2-[(1-ethylpyrazol-4-yl)amino]pyrimidin-5-yl]-2-fluoro-phenyl]-N-[5-(trifluoromethyl)-3-pyridyl]acetamide]
0.0001 to 10 µM	0.0001 to 10 µM	CCn1cc(Nc2ncc(-c3ccc(CC(=O)Nc4cnc(OC)c(C(F)(F)F)c4)c(F)c3)cn2)cn1 [Compound P-0259, 2-[4-[2-[(1-ethylpyrazol-4-yl)amino]pyrimidin-5-yl]-2-fluoro-phenyl]-N-[6-methoxy-5-(trifluoromethyl)-3-pyridyl]acetamide]
0.0001 to 10 µM	0.0001 to 10 µM	CCn1cc(Nc2ncc(-c3ccc(CC(=O)Nc4cnc(Cl)c(C(F)(F)F)c4)c(F)c3)cn2)cn1 [Compound P-0260, N-[6-chloro-5-(trifluoromethyl)-3-pyridyl]-2-[4-[2-[(1-ethylpyrazol-4-yl)amino]pyrimidin-5-yl]-2-fluoro-phenyl]acetamide]
0.0001 to 10 µM	0.0001 to 10 µM	CCn1cc(Nc2ncc(-c3ccc(CC(=O)Nc4cnc(C)c(C(F)(F)F)c4)c(F)c3)cn2)cn1 [Compound P-0261, 2-[4-[2-[(1-ethylpyrazol-4-yl)amino]pyrimidin-5-yl]-2-fluoro-phenyl]-N-[6-methyl-5-(trifluoromethyl)-3-pyridyl]acetamide]
0.0001 to 10 µM	0.0001 to 10 µM	COc1ncc(NC(=O)Cc2ccc(-c3cnc4[nH]nc(C5CC5)c4c3)cc2F)cc1C(F)(F)F [Compound P-0262, 2-[4-(3-cyclopropyl-1H-pyrazolo[3,4-b]pyridin-5-yl)-2-fluoro-phenyl]-N-[6-methoxy-5-(trifluoromethyl)-3-pyridyl]acetamide]
0.0001 to 10 µM	0.0001 to 10 µM	COc1ncc(NC(=O)Cc2ccc(-c3cnc4[nH]nc(C5CC5)c4c3)cc2)cc1C(F)(F)F [Compound P-0263, 2-[4-(3-cyclopropyl-1H-pyrazolo[3,4-b]pyridin-5-yl)phenyl]-N-[6-methoxy-5-(trifluoromethyl)-3-pyridyl]acetamide]
0.0001 to 10 µM	0.0001 to 10 µM	COCCn1cc(Nc2ncc(-c3ccc(CC(=O)Nc4cnc(OC)c(C(F)(F)F)c4)c(F)c3)cn2)cn1 [Compound P-0265, 2-[2-fluoro-4-[2-[[1-(2-methoxyethyl)pyrazol-4-yl]amino]pyrimidin-5-yl]phenyl]-N-[6-methoxy-5-(trifluoromethyl)-3-pyridyl]acetamide]
